Measured values as given in US9796716B2, “Selective inhibitors of Tec and Src protein kinase families” (Pharmascience, Inc., priority 2012, dated 2017).

How the values were obtained:
[1] = system: Splenocytes (B cell proliferation stimulated with anti-IgM F(ab′)2); assay: Splenic Cell Proliferation Assay; assay type: cell-based; conditions: Mus musculus, Splenocyte, 72 h, CD1 mouse splenocytes, 2.5 ug/ml anti-IgM F(ab′)2 for 72 h, Cell Titer-Glo; read-out: EC50 (nM), Inhibition of splenic cell proliferation
Procedure: Splenic Cell Proliferation Assay
Splenocytes were obtained from 6 week old male CD1 mice (Charles River Laboratories Inc.). Mouse spleens were manually disrupted in PBS and filtered using a 70 um cell strainer followed by ammonium chloride red blood cell lysis. Cells were washed, resuspended in Splenocyte Medium (HyClone RPMI supplemented with 10% heat-inactivated FBS, 0.5× non-essential amino acids, 10 mM HEPES, 50 uM beta mercaptoethanol) and incubated at 37° C., 5% CO2 for 2 h to remove adherent cells. Suspension cells were seeded in 96 well plates at 50,000 cells per well and incubated at 37° C., 5% CO2 for 1 h. Splenocytes were pre-treated in triplicate with 10,000 nM curves of Formula 1 compounds for 1 h, followed by stimulation of B cell proliferation with 2.5 ug/ml anti-IgM F(ab′)2 (Jackson ImmunoResearch) for 72 h. Cell proliferation was measured by Cell Titer-Glo Luminescent Assay (Promega). EC50 values (50% proliferation in the presence of compound as compared to vehicle treated controls) were calculated from dose response compound curves using GraphPad Prism Software.

[2] = target: recombinant human full-length Bruton Agammaglobulinemia Tyrosine Kinase (Btk) (Homo sapiens (Human), UniProt Q06187); assay: Btk Kinase Inhibition Assay (fluorescence polarization); assay type: biochemical; conditions: 10 μM ATP, 250 μM substrate, 60 minutes; Ki calculated from IC50 using the Cheng-Prusoff equation
recombinant human full-length Bruton Agammaglobulinemia Tyrosine Kinase (Btk), sequence (Q06187 whole entry): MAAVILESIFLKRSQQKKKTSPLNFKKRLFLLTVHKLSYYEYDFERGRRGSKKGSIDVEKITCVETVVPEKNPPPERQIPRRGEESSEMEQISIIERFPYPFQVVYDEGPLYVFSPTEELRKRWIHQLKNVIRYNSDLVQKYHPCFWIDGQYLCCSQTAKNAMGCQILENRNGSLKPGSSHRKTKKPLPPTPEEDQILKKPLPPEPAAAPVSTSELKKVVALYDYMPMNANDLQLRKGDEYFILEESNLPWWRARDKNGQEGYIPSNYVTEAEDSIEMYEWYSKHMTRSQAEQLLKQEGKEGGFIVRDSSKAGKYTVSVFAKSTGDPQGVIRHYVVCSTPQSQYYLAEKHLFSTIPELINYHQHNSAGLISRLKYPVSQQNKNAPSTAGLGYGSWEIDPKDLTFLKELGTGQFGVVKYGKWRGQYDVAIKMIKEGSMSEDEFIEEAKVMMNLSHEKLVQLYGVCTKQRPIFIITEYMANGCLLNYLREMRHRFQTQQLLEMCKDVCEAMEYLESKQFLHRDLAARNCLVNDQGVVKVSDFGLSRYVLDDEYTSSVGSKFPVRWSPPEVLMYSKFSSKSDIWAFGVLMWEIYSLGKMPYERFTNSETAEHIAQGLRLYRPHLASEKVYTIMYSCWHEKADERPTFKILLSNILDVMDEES
Procedure: Kinase Binding Btk Kinase Inhibition Assay
Fluorescence polarization-based kinase assays were performed in 384 well-plate format using histidine tagged recombinant human full-length Bruton Agammaglobulinemia Tyrosine Kinase (Btk) and a modified protocol of the KinEASE™ FP Fluorescein Green Assay supplied from Millipore. Kinase reaction were performed at room temperature for 60 minutes in presence of 250 μM substrate, 10 μM ATP and variable test article concentrations. The reaction was stopped with EDTA/kinase detection reagents and the polarization measured on a Tecan 500 instrument. From the dose-response curve obtained, the IC50 was calculated using Graph Pad Prisms® using a non linear fit curve. The Km for ATP on each enzyme was experimentally determined and the Ki values calculated using the Cheng-Prusoff equation (see: Cheng Y, Prusoff W H. (1973) Relationship between the inhibition constant (K1) and the concentration of inhibitor which causes 50 percent inhibition (I50) of an enzymatic reaction”. Biochem Pharmacol 22 (23): 3099-108).

| Compound | EC50 [1] [nM] | Ki [2] [nM] |
| --- | --- | --- |
| Nc1ncnc2c1c(-c1ccc(Oc3cc(F)cc(OCc4cncnc4)c3)cc1)nn2C1CCOCC1 [Compound 68] | < 100 | < 100 |
| Cc1ccc(COc2cc(F)cc(Oc3ccc(-c4nn(C5CCOCC5)c5ncnc(N)c45)cc3)c2)c[n+]1[O-] [Compound 91] | < 100 | < 100 |
| Cn1cncc1COc1cc(F)cc(Oc2ccc(-c3nn(CCO)c4ncnc(N)c34)c(F)c2)c1 [Compound 105] | 100 to 1000 | < 100 |
| Cc1ncc(COc2cc(F)cc(Oc3ccc(-c4nn(C(CO)CO)c5ncnc(N)c45)cc3)c2)cn1 [Compound 130] | 100 to 1000 | < 100 |
| Nc1ncnc2c1c(-c1ccc(Oc3cc(F)cc(CCc4ccccn4)c3)cc1)nn2C1CCOCC1 [Compound 86] | 100 to 1000 | < 100 |
| N#Cc1ccccc1COc1cccc(Oc2ccc(-c3nn(C4CCOCC4)c4ncnc(N)c34)cc2)c1 [Compound 35] | < 100 | < 100 |
| CC(=O)N1CCC[C@@H](n2nc(-c3ccc(Oc4cccc(OCc5cncs5)c4)cc3)c3c(N)ncnc32)C1 [Compound 27] | < 100 | < 100 |
| Nc1ncnc2c1c(-c1ccc(Oc3cc(F)cc(OCc4ccccc4)c3)cc1)nn2C1CCOCC1 [Compound 63] | < 100 | < 100 |
| Cn1nc(-c2ccc(Oc3cccc(COc4ccccc4C#N)c3)cc2)c2c(N)ncnc21 [Compound 17] | 100 to 1000 | < 100 |
| Nc1ncnc2c1c(-c1ccc(Oc3cc(F)cc(CCc4cccnc4)c3)cc1)nn2C1CCOCC1 [Compound 80] | 100 to 1000 | < 100 |
| [2H]C([2H])(Oc1cc(F)cc(Oc2ccc(-c3nn(C4CCOCC4)c4ncnc(N)c34)cc2)c1)c1cncn1C [Compound 75] | < 100 | < 100 |
| Cc1ncc(COc2cc(F)cc(Oc3ccc(-c4nn(C(C)C)c5ncnc(N)c45)cc3)c2)n1C [Compound 123] | < 100 | < 100 |
| Cn1cncc1COc1cc(F)cc(Oc2ccc(-c3nn(C4CCCC4)c4ncnc(N)c34)c(F)c2)c1 [Compound 92] | < 100 | < 100 |
| Cc1ncc(COc2cc(F)cc(Oc3ccc(-c4nn(CC(C)(C)O)c5ncnc(N)c45)cc3)c2)cn1 [Compound 122] | 100 to 1000 | < 100 |
| Cc1ncc(COc2cc(F)cc(Oc3ccc(-c4nn(CCCO)c5ncnc(N)c45)cc3)c2)cn1 [Compound 114] | 100 to 1000 | < 100 |
| Nc1ncnc2c1c(-c1ccc(Oc3cccc(OCc4ccccc4)c3)cc1)nn2C1CCOCC1 [Compound 21] | < 100 | < 100 |
| Nc1ncnc2c1c(-c1ccc(Oc3cc(F)cc(OCc4cnc[nH]4)c3)cc1)nn2C1CCOCC1 [Compound 93] | 100 to 1000 | < 100 |
| Cc1ccc(COc2cc(F)cc(Oc3ccc(-c4nn(C5CCOCC5)c5ncnc(N)c45)cc3)c2)cn1 [Compound 65] | < 100 | < 100 |
| Nc1ncnc2c1c(-c1ccc(Oc3cccc(OCc4ccccc4)c3)cc1)nn2C1CCCC1 [Compound 2] | 100 to 1000 | < 100 |
| Cc1ccc(COc2cc(F)cc(Oc3ccc(-c4nn(C5CCOCC5)c5ncnc(N)c45)c(F)c3)c2)cn1 [Compound 95] | < 100 | < 100 |
| Cc1ncc(COc2cccc(Oc3ccc(-c4nn(C5CCOCC5)c5ncnc(N)c45)cc3)c2)s1 [Compound 38] | < 100 | < 100 |
| Nc1ncnc2c1c(-c1ccc(Oc3cc(F)cc(OCc4cncn4CCOCc4ccccc4)c3)cc1)nn2C1CCOCC1 [Compound 97] | 100 to 1000 | < 100 |
| Cn1cncc1COc1cccc(Oc2ccc(-c3nn(C4CCOCC4)c4ncnc(N)c34)cc2)c1 [Compound 48] | < 100 | < 100 |
| CC(=O)N1CCC[C@@H](n2nc(-c3ccc(Oc4cccc(COc5ccccc5C#N)c4)cc3)c3c(N)ncnc32)C1 [Compound 25] | < 100 | < 100 |
| Cc1ncc(COc2cccc(Oc3ccc(-c4nn(C)c5ncnc(N)c45)cc3)c2)s1 [Compound 18] | < 100 | < 100 |
| Cn1cncc1COc1cc(F)cc(Oc2ccc(-c3nn(CCCO)c4ncnc(N)c34)cc2)c1 [Compound 116] | < 100 | < 100 |

| Compound | EC50 [1] [nM] | Ki [2] [nM] |
| --- | --- | --- |
| CC(C)C(=O)N1CCC[C@@H](n2nc(-c3ccc(Oc4cccc(OCc5ccccc5)c4)cc3)c3c(N)ncnc32)C1 [Compound 8] | < 100 | < 100 |
| Nc1ncnc2c1c(-c1ccc(Oc3cccc(OCc4ccccc4)c3)cc1)nn2[C@@H]1CCCNC1 [Compound 4] | 100 to 1000 | < 100 |
| N#Cc1ccccc1OCc1cccc(Oc2ccc(-c3nn(C4CCOCC4)c4ncnc(N)c34)cc2)c1 [Compound 22] | < 100 | < 100 |
| Cc1ncc(COc2cc(F)cc(Oc3ccc(-c4nn(C)c5ncnc(N)c45)cc3)c2)s1 [Compound 61] | 100 to 1000 | < 100 |
| Cc1ncc(COc2cccc(Oc3ccc(-c4nn(C5CCCC5)c5ncnc(N)c45)cc3)c2)s1 [Compound 37] | < 100 | < 100 |
| Cc1ncc(COc2cc(F)cc(Oc3ccc(-c4nn(C5COC5)c5ncnc(N)c45)cc3)c2)s1 [Compound 113] | < 100 | < 100 |
| Cc1ccc(COc2cc(F)cc(Oc3ccc(-c4nn(C5CCCC5)c5ncnc(N)c45)cc3)c2)cn1 [Compound 84] | < 100 | < 100 |
| CC(C)n1nc(-c2ccc(Oc3cc(F)cc(OCc4cncn4C)c3)cc2F)c2c(N)ncnc21 [Compound 98] | < 100 | < 100 |
| Nc1ncnc2c1c(-c1ccc(Oc3cc(F)cc(OCc4ccc(CO)nc4)c3)cc1)nn2C1CCOCC1 [Compound 101] | < 100 | < 100 |
| C=CC(=O)N1CCC[C@@H](n2nc(-c3ccc(Oc4cccc(OCc5ccccc5)c4)cc3)c3c(N)ncnc32)C1 [Compound 5] | < 100 | < 100 |
| CCCC(=O)N1CCC[C@@H](n2nc(-c3ccc(Oc4cccc(OCc5ccccc5)c4)cc3)c3c(N)ncnc32)C1 [Compound 7] | 100 to 1000 | < 100 |
| Cc1ncc(COc2cc(F)cc(Oc3ccc(-c4nn(CCO)c5ncnc(N)c45)cc3)c2)s1 [Compound 81] | < 100 | < 100 |
| CC(C)n1nc(-c2ccc(Oc3cc(F)cc(OCc4ccc(CO)nc4)c3)cc2)c2c(N)ncnc21 [Compound 128] | < 100 | < 100 |
| Cc1ccc(COc2cc(F)cc(Oc3ccc(-c4nn(CC5(C)COC5)c5ncnc(N)c45)cc3)c2)cn1 [Compound 126] | 100 to 1000 | < 100 |
| CN1CCN(CCn2nc(-c3ccc(Oc4cccc(OCc5cncs5)c4)cc3)c3c(N)ncnc32)CC1 [Compound 40] | 100 to 1000 | < 100 |
| Cc1ncc(COc2cc(F)cc(Oc3ccc(-c4nn(CCO)c5ncnc(N)c45)cc3)c2)n1C [Compound 115] | 100 to 1000 | < 100 |
| Cc1ncc(COc2cc(F)cc(Oc3ccc(-c4nn(CCN5CCCC5)c5ncnc(N)c45)cc3)c2)s1 [Compound 57] | 100 to 1000 | < 100 |
| Cc1ncc(COc2cc(F)cc(Oc3ccc(-c4nn(C(CO)CCl)c5ncnc(N)c45)cc3)c2)s1 (centres unmarked) [Compound 109] | < 100 | < 100 |
| Nc1ncnc2c1c(-c1ccc(Oc3cccc(OCc4cncs4)c3)cc1)nn2CCCN1CCOCC1 [Compound 53] | < 100 | < 100 |
| Nc1ncnc2[nH]nc(-c3ccc(Oc4cccc(OCc5ccccc5)c4)cc3)c12 [Compound 1] | 100 to 1000 | < 100 |
| Cc1ccc(COc2cc(F)cc(Oc3ccc(-c4nn(CCO)c5ncnc(N)c45)cc3)c2)cn1 [Compound 88] | < 100 | < 100 |
| CC(C)Cn1cncc1COc1cc(F)cc(Oc2ccc(-c3nn(C4CCOCC4)c4ncnc(N)c34)cc2)c1 [Compound 74] | 100 to 1000 | < 100 |
| COc1ccc(COc2cccc(Oc3ccc(-c4nn(C5CCCC5)c5ncnc(N)c45)cc3)c2)cc1 [Compound 11] | 100 to 1000 | < 100 |
| CCn1cncc1COc1cc(F)cc(Oc2ccc(-c3nn(C4CCOCC4)c4ncnc(N)c34)cc2)c1 [Compound 87] | < 100 | < 100 |
| Cc1ncc(COc2cc(F)cc(Oc3ccc(-c4nn(CCO)c5ncnc(N)c45)cc3)c2)cn1 [Compound 110] | 100 to 1000 | < 100 |
| Nc1ncnc2c1c(-c1ccc(Oc3cccc(OCc4ccc(Cl)cc4)c3)cc1)nn2C1CCCC1 [Compound 9] | 100 to 1000 | < 100 |
